Assay results: publication PMC6327044, “A chemical biology screen identifies a vulnerability of neuroendocrine cancer cells to SQLE inhibition” (Nature Communications, 2019)

How the values were obtained:
Assay in all cases: cells
Design in all cases: species or system panel of 482 human cancer cell lines; ATPLite luminescence growth inhibition after treatment, nine-point dilution curve, 482 cancer cell lines, 384-well
Conditions in all cases: 72 h, recommended growth medium
NCIH1836_LUNG = system: NCIH1836_LUNG
Description: (§1) Cells were seeded in recommended growth media in black 384-well tissue culture treated plates at 500 cells per well. Cells were equilibrated in assay plates via centrifugation and placed in incubators for 24 h before treatment. […] Treated assay plates were incubated with compounds for 72 h and subsequently were developed for endpoint analysis using ATPLite. Each compound was assessed using a nine-point dilution curve. Cells were defined as sensitive to a given compound based on GI75 < 2 μM with manual quality control of curve fit. GI75 is defined as a drug concentration that causes a 75% reduction in assay readout relative to dimethyl sulfoxide (DMSO)-treated controls. To identify novel cancer vulnerabilities, we screened a panel of 482 cell lines with a diverse set of metabolic inhibitors. […] Given that SCLC is thought to arise from neuroendocrine cells in the lung[9], we tested the NB-598 sensitivity in a panel of 42 SCLC cell lines. We calculated a quantitative metric of sensitivity for each cell line based on the area under the curve (AUC) of the mu/mu.max curve to more accurately capture the potency and extent of NB-598 effects. […] We categorized the SCLC cell lines as sensitive (5/42), moderate (11/42), and insensitive (26/42) (Fig. 1c and Supplementary Data 2) and focused all subsequent efforts on this indication. […] To further understand the patterns of sensitivity, we conducted RNA sequencing (RNA-Seq; Supplementary Data 3) and proteomic (Supplementary Data 4) characterization of the SCLC panel to identify unbiased expression signatures associated with enhanced NB-598 response (Supplementary Fig. 1 and Supplementary Fig. 2). Given the growing understanding that SCLC tumors can be further subdivided based on the status of lineage-defining transcription factors, ASLC1 and NEUROD1, we specifically investigated NB-598 response as the function of ASCL1 and NEUROD1 expression levels. […] To further dissect the NB-598 response within the ASCL1-high/NEUROD-low subset of 25 cell lines, we identified RNA-Seq and proteomics expression signatures associated with NB

NCIH1048_LUNG = system: NCIH1048_LUNG
Description: as §1

HCC1588_LUNG = system: HCC1588_LUNG
Description: as §1

NCIH841_LUNG = system: NCIH841_LUNG
Description: as §1

UACC893_BREAST = system: UACC893_BREAST
Description: as §1

NCIH1568_LUNG = system: NCIH1568_LUNG
Description: as §1

A427_LUNG = system: A427_LUNG
Description: as §1

SNU308_BILIARY_TRACT = system: SNU308_BILIARY_TRACT
Description: as §1

TE6_OESOPHAGUS = system: TE6_OESOPHAGUS
Description: as §1

NCIH2110_LUNG = system: NCIH2110_LUNG
Description: as §1

[1] = system: HUNS1_HAEMATOPOIETIC_AND_LYMPHOID_TISSUE
Description: as §1

NCIH2106_LUNG = system: NCIH2106_LUNG
Description: as §1

SNU175_LARGE_INTESTINE = system: SNU175_LARGE_INTESTINE
Description: as §1

[2] = system: WSUNHL_HAEMATOPOIETIC_AND_LYMPHOID_TISSUE
Description: as §1

HEP3B217_LIVER = system: HEP3B217_LIVER
Description: as §1

[3] = system: SUDHL4_HAEMATOPOIETIC_AND_LYMPHOID_TISSUE
Description: as §1

MFE280_ENDOMETRIUM = system: MFE280_ENDOMETRIUM
Description: as §1

## CCN(C/C=C/C#CC(C)(C)C)Cc1cccc(OCc2cc(-c3ccsc3)cs2)c1 [NB-598]
NCIH1836_LUNG
  GI50: 14.7 nM
NCIH1048_LUNG
  GI50: 9060 nM
HCC1588_LUNG
  GI50: 5160 nM
NCIH841_LUNG
  GI50: 13200 nM
UACC893_BREAST
  GI50: 1190 nM
NCIH1568_LUNG
  GI50: 7980 nM
A427_LUNG
  GI50: 5.55 nM
SNU308_BILIARY_TRACT
  GI50: 2920 nM
TE6_OESOPHAGUS
  GI50: 9280 nM
NCIH2110_LUNG
  GI50: 36200 nM
[1]
  GI50: 170 nM
NCIH2106_LUNG
  GI50: 12.1 nM
SNU175_LARGE_INTESTINE
  GI50: 243 nM
[2]
  GI50: 21.8 nM
HEP3B217_LIVER
  GI50: 9960 nM
[3]
  GI50: 10600 nM
MFE280_ENDOMETRIUM
  GI50: 16.9 nM
